Test results published in US20110045032A1 (priority 2001, published 2011).

System: dust mite-sensitized rabbits
Assay: Bronchial hyperresponsiveness to histamine (Example 27)
Format: in vivo
Description: This follow-up study compared the effects of DHEA-S and Puimicort® (budesonide inhalation suspension) on allergen-induced bronchial hyperresponsiveness (BHR) to histamine and pulmonary inflammation in dust mite-sensitized rabbits. The study included 18 animals divided into 3 treatment groups: saline, DHEA-S, and Puimicort. The animals were treated for once per day for 5 consecutive days via nebulization through a pediatric facemask covering the nose and mouth. Treatments were DHEA-S, 10 mg/day (5 mg/ml), Pulmicort Respules, 0.5 mg/day (0.5 mg/2 ml, note: this is the standard human dose) or saline (2 ml). A dust mite challenge was performed on day 4, and development of airway inflammation was assessed 6 hours and 30 hours after dust mite challenge. Histamine sensitivity was assessed 30 hours after challenge (day 5) and the lungs removed for histology.
There was an increase in the area under the curve of 17.42, which means the animals became more sensitive to histamine following allergen exposure. […] The resulting change in the area under the curve was −4.52 and −6.70 for DHEA-S and Puimicort, respectively, this means that animals treated with DHEA-S or Pulmicort were less sensitive to histamine following allergen exposure.

CC12CCC3C(CC=C4CC(OS(=O)(=O)[O-])CCC43C)C1CCC2=O.[Na+] (centres unmarked) [DHEA-S, Dehydroepiandrosterone sulfate]
change in the area under the histamine dose-response (resistance) curve: −4.52
histamine response curve (30 hours after challenge): tended to shift the histamine response curve downward
